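Assay format: 96-well plates, 48-hour exposure. The concentration for 50% growth inhibition is given as GI50.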 Active and inactive are the calls of the source. Rule as the data show it: active = GI50 up to about 1.1 µM and inactive = higher.
What was measured:
Experiment in all cases: NCI tumour cell line growth inhibition, 48 h
OVCAR-8 = tested on: OVCAR-8
NCI-H460 = tested on: NCI-H460
HOP-92 = tested on: HOP-92
EKVX = tested on: EKVX
SW-620 = tested on: SW-620
COLO 205 = tested on: COLO 205
ACHN = tested on: ACHN
NCI-H226 = tested on: NCI-H226
HCC 2998 = tested on: HCC 2998
SN12C = tested on: SN12C
NCI-H522 = tested on: NCI-H522
KM12 = tested on: KM12
HCT-15 = tested on: HCT-15
Malme-3M = tested on: Malme-3M
HCT-116 = tested on: HCT-116
SK-MEL-28 = tested on: SK-MEL-28
NCI-H23 = tested on: NCI-H23
A549 = tested on: A549
LOX IMVI = tested on: LOX IMVI

SMILES	GI50 (OVCAR-8)	GI50 (NCI-H460)	GI50 (HOP-92)	GI50 (EKVX)	GI50 (SW-620)	GI50 (COLO 205)	GI50 (ACHN)	GI50 (NCI-H226)	GI50 (HCC 2998)	GI50 (SN12C)	GI50 (NCI-H522)	GI50 (KM12)	GI50 (HCT-15) [µM]	GI50 (Malme-3M)	GI50 (HCT-116)	GI50 (SK-MEL-28)	GI50 (NCI-H23)	GI50 (A549)	GI50 (LOX IMVI)
O=C1C(=O)N(c2ccc(Cl)cc2Cl)C(=O)C(=O)C1c1nc2ccccc2o1	> 100 µM (inactive)	> 100 µM (inactive)	> 100 µM (inactive)	> 100 µM (inactive)	> 100 µM (inactive)	> 100 µM (inactive)	> 100 µM (inactive)	> 100 µM (inactive)	> 100 µM (inactive)	> 100 µM (inactive)	> 100 µM (inactive)	> 100 µM (inactive)	> 100	> 100 µM (inactive)	> 100 µM (inactive)	> 100 µM (inactive)	> 100 µM (inactive)	> 100 µM (inactive)	–
CC[N+](CC)(CC)Cc1cn(S(=O)(=O)c2ccccc2)c2ccccc12	> 100 µM (inactive)	> 100 µM (inactive)	> 100 µM (inactive)	–	> 100 µM (inactive)	> 100 µM (inactive)	> 100 µM (inactive)	> 100 µM (inactive)	> 100 µM (inactive)	–	> 100 µM (inactive)	> 100 µM (inactive)	> 100	> 100 µM (inactive)	> 100 µM (inactive)	> 100 µM (inactive)	> 100 µM (inactive)	> 100 µM (inactive)	–
CSc1ccc(-c2cn3ccsc3n2)c(O)c1	> 89.9 µM (inactive)	13.6 µM (inactive)	47.3 µM (inactive)	> 81.3 µM (inactive)	36.1 µM (inactive)	> 44.5 µM (inactive)	> 82.6 µM (inactive)	> 100 µM (inactive)	> 60 µM (inactive)	> 79.1 µM (inactive)	37.2 µM (inactive)	> 56.5 µM (inactive)	17.6	> 61.1 µM (inactive)	30.3 µM (inactive)	> 100 µM (inactive)	48.3 µM (inactive)	> 90.8 µM (inactive)	20 µM (inactive)
O=c1c(Br)cc2nc3ccccc3sc-2c1Br	19.5 µM (inactive)	> 100 µM (inactive)	50 µM (inactive)	> 74.6 µM (inactive)	68.1 µM (inactive)	36.3 µM (inactive)	> 100 µM (inactive)	> 100 µM (inactive)	> 100 µM (inactive)	> 100 µM (inactive)	15.8 µM (inactive)	> 100 µM (inactive)	> 68.7	> 100 µM (inactive)	> 100 µM (inactive)	> 100 µM (inactive)	29.9 µM (inactive)	> 94.8 µM (inactive)	61.7 µM (inactive)
CC(C)(C)NC(=O)C12C3C4C1C1C2C3C41I (stereo not given)	> 100 µM (inactive)	> 100 µM (inactive)	84.1 µM (inactive)	–	> 100 µM (inactive)	> 100 µM (inactive)	–	> 100 µM (inactive)	> 100 µM (inactive)	> 100 µM (inactive)	> 100 µM (inactive)	> 100 µM (inactive)	> 100	> 100 µM (inactive)	> 100 µM (inactive)	> 100 µM (inactive)	> 100 µM (inactive)	> 100 µM (inactive)	> 100 µM (inactive)
CN(C)CCN1N=Nc2cccc3cccc1c23	97.9 µM (inactive)	37.5 µM (inactive)	> 100 µM (inactive)	> 100 µM (inactive)	25.1 µM (inactive)	68.4 µM (inactive)	61.1 µM (inactive)	> 100 µM (inactive)	> 100 µM (inactive)	> 55.5 µM (inactive)	54.2 µM (inactive)	> 100 µM (inactive)	> 61.9	> 78.3 µM (inactive)	57.1 µM (inactive)	> 100 µM (inactive)	> 100 µM (inactive)	> 100 µM (inactive)	83.8 µM (inactive)
CCCCCCCCCCCCCC/C(C(=O)OC)=C(/O)C(=O)OCC	44.8 µM (inactive)	37.8 µM (inactive)	25.5 µM (inactive)	37.2 µM (inactive)	> 100 µM (inactive)	90.8 µM (inactive)	28.9 µM (inactive)	> 100 µM (inactive)	19.9 µM (inactive)	> 100 µM (inactive)	43.3 µM (inactive)	19.9 µM (inactive)	19.7	> 100 µM (inactive)	47.6 µM (inactive)	24 µM (inactive)	> 100 µM (inactive)	26.4 µM (inactive)	17.8 µM (inactive)
CC(C)c1cccc(=O)c(O)c1 [HINOKITIOL]	4.45 µM (inactive)	6.98 µM (inactive)	15.9 µM (inactive)	17.3 µM (inactive)	5.9 µM (inactive)	4.24 µM (inactive)	3.33 µM (inactive)	11 µM (inactive)	9.23 µM (inactive)	11.2 µM (inactive)	3.82 µM (inactive)	12.4 µM (inactive)	5.14	12.6 µM (inactive)	3.91 µM (inactive)	18.9 µM (inactive)	8.09 µM (inactive)	9.35 µM (inactive)	5.06 µM (inactive)
COc1ccc([C@@H]2C[C@@H]3C(=O)OC(=O)[C@@H]3c3c2c2ccccc2n3C)cc1	> 100 µM (inactive)	–	> 100 µM (inactive)	> 100 µM (inactive)	> 100 µM (inactive)	> 100 µM (inactive)	–	> 100 µM (inactive)	> 100 µM (inactive)	> 100 µM (inactive)	> 100 µM (inactive)	> 100 µM (inactive)	–	> 100 µM (inactive)	> 100 µM (inactive)	> 100 µM (inactive)	> 100 µM (inactive)	> 100 µM (inactive)	–
O=C1C2=C(CC3C(C2)C3(Br)Br)C(=O)C2=C1CC1C(C2)C1(Br)Br (stereo not given)	> 100 µM (inactive)	> 100 µM (inactive)	> 100 µM (inactive)	> 100 µM (inactive)	–	> 100 µM (inactive)	> 100 µM (inactive)	> 100 µM (inactive)	> 100 µM (inactive)	> 100 µM (inactive)	34.6 µM (inactive)	> 100 µM (inactive)	> 100	> 100 µM (inactive)	> 100 µM (inactive)	> 100 µM (inactive)	> 100 µM (inactive)	> 100 µM (inactive)	82.4 µM (inactive)
NC1=NCCC1(c1ccccc1)c1ccccn1 (stereo not given)	> 100 µM (inactive)	> 100 µM (inactive)	> 100 µM (inactive)	> 100 µM (inactive)	> 100 µM (inactive)	> 100 µM (inactive)	> 100 µM (inactive)	> 100 µM (inactive)	> 100 µM (inactive)	> 100 µM (inactive)	> 100 µM (inactive)	> 100 µM (inactive)	> 100	> 100 µM (inactive)	> 100 µM (inactive)	> 100 µM (inactive)	> 100 µM (inactive)	> 100 µM (inactive)	–
Cc1ccc(NC(=O)CC/C(CC(=O)C(C)(C)C)=N/Nc2nnc(C)n2N)cc1C	> 100 µM (inactive)	> 100 µM (inactive)	> 100 µM (inactive)	30.8 µM (inactive)	> 100 µM (inactive)	> 100 µM (inactive)	> 100 µM (inactive)	> 100 µM (inactive)	> 100 µM (inactive)	> 100 µM (inactive)	> 100 µM (inactive)	84.9 µM (inactive)	> 100	> 100 µM (inactive)	> 100 µM (inactive)	> 100 µM (inactive)	> 100 µM (inactive)	> 100 µM (inactive)	> 100 µM (inactive)
Cc1cn(CC2=NCCCN2)c(=O)[nH]c1=O	> 100 µM (inactive)	> 100 µM (inactive)	> 100 µM (inactive)	> 100 µM (inactive)	> 100 µM (inactive)	> 100 µM (inactive)	> 100 µM (inactive)	> 100 µM (inactive)	> 100 µM (inactive)	> 100 µM (inactive)	> 100 µM (inactive)	–	> 100	> 100 µM (inactive)	> 100 µM (inactive)	> 100 µM (inactive)	> 100 µM (inactive)	> 100 µM (inactive)	> 100 µM (inactive)
CC(N)C(C)c1ccccc1 (stereo not given)	> 100 µM (inactive)	> 100 µM (inactive)	> 100 µM (inactive)	> 100 µM (inactive)	> 100 µM (inactive)	> 100 µM (inactive)	> 100 µM (inactive)	> 100 µM (inactive)	> 100 µM (inactive)	> 100 µM (inactive)	> 100 µM (inactive)	> 100 µM (inactive)	> 100	> 100 µM (inactive)	> 100 µM (inactive)	> 100 µM (inactive)	> 100 µM (inactive)	> 100 µM (inactive)	> 100 µM (inactive)
CC(C)(C)C1CCC2c3c([nH]c4ncccc34)C3C(=O)N(c4ccccc4)C(=O)C3C2C1 (stereo not given)	99.3 µM (inactive)	> 100 µM (inactive)	> 100 µM (inactive)	> 100 µM (inactive)	> 100 µM (inactive)	> 100 µM (inactive)	> 100 µM (inactive)	> 100 µM (inactive)	> 100 µM (inactive)	88.1 µM (inactive)	89.3 µM (inactive)	> 100 µM (inactive)	> 100	> 100 µM (inactive)	> 100 µM (inactive)	> 100 µM (inactive)	> 100 µM (inactive)	> 100 µM (inactive)	> 100 µM (inactive)
Nc1c(-c2ccc(Cl)cc2)[n+]([O-])c2ccccc2[n+]1[O-]	> 100 µM (inactive)	94.2 µM (inactive)	28.1 µM (inactive)	> 100 µM (inactive)	> 100 µM (inactive)	> 100 µM (inactive)	57.1 µM (inactive)	14.5 µM (inactive)	49.9 µM (inactive)	95.1 µM (inactive)	25.3 µM (inactive)	> 100 µM (inactive)	76.4	> 100 µM (inactive)	–	76.9 µM (inactive)	54.6 µM (inactive)	> 100 µM (inactive)	> 100 µM (inactive)
